Measured values taken from patent US20150216182A1, “COMPOSITIONS AND METHODS OF THE ATTRACTION AND REPULSION OF INSECTS” (Olfactor Laboratories, Inc., priority 2012, published 2015).
Counter-ions that a name gives are not always drawn. Like-named read-outs stand apart in the source and are kept apart here.

How the values were obtained:
[1] = test system: larvae; assay: larvicidal activity assay; assay type: in vivo; settings: for pest or weed control at 0.25 %: read-out: % Lethality with 0.25% compound conc.; for pest or weed control at 100 ppm: read-out: % Lethality at 100 ppm
Experimental: A 6-well plate (Corning Life Sciences, Tewksbury, Mass.) is used to test a compound's larvicidal activity. […] After a 24 hour exposure, the number of dead larvae are counted and recorded.
The results are presented in Table 17 as % lethality (the number of dead larvae divided by the total number of larvae).

[2] = test system: bed bugs (Cimex lectularius); assay: bed bug repellency assay; assay type: in vivo; settings: compound or combination on filter paper harborage, ten bed bugs
Experimental: Compounds and combinations of compounds of the present invention were assayed for their ability to repel bed bugs (Cimex lectularius) using a bed bug repellency assay. This assay takes advantage of the bed bug's natural tendency to seek harborage. Two petri dishes were obtained and the inner areas of each were sanded down (leaving the perimeter smooth.) Talc was applied on the perimeter and on the inside walls of the petri dishes with a small paint brush to prevent bed bugs from escaping. A cut off top portion of a solo bathroom cup was placed upside down in the center of one petri dish. A large plastic secondary container was gathered and a paper towel was laid down inside the bottom. The petri dish was then placed inside and ten bed bugs were placed inside the cut off portion of the solo cup. Next, two pieces of filter paper were cut down the middle to yield 4 equally sized halves. 3 pieces were placed inside a glass dish ([…]) and the remaining piece was placed in a separate dish. All 4 pieces were folded down the middle to create a “tent” or “harborage” when laid such that the folded crease faced up. 100 microliters of isopropyl alcohol was pipetted into 3 pieces of filter paper (all housed in the first glass dish.) In a separate 4 ml vial, 90 microliters of isopropyl alcohol was combined and vortexed with 10 microliters of the compound or compound combination being tested. 100 microliters of this solution [comprising a total of 100 mg of compound(s)] was pipetted onto the filter paper in the separate dish. All filter papers were then allowed to dry. Once dry, experiments were conducted first with two filter paper halves comprising only the isopropyl alcohol (control experiment) and then with the remaining filter paper halves [one with only isopropyl alcohol and one comprising the test compound(s).] Filter paper halves were placed on opposing sides of experimental petri dishes and bed bugs were allowed to move freely within the dishes for 5 minutes. Movement of bed bugs beneath each filter paper tent was recorded. […] In the Table, “Rep” refers to repellency and “Cmpd” refers to compound.

[3] = test system: female mosquitoes; assay: whole plant or invertebrate; settings: 2 h; for mortality at 200 µg/mL: read-out: % mortality with 0.2 mg/ml; for mortality at 2000 µg/mL: read-out: % mortality with 2 mg/ml
[4] = test system: cpA neurons; assay: extracellular single-sensillum electrophysiology: activation of cpA neuronal activity; settings: for Class: Table 6, single compounds, increase over baseline cpA neuronal activity; for Comp A Class / Comp B Class: Table 9; for Comp A Class: component A tested individually; for Comp B Class: component B tested individually; for Class B (activator class of the individual component): Table 15, single component alone, Mod Actv; for Class (activator class of the individual component): Actv = activator
[5] = test system: cpA neurons; assay: extracellular single-sensillum electrophysiology: inhibition of CO2-responsive (cpA) neuronal activity
[6] = 0.25% compound, 24 hour exposure, dead larvae / total larvae
[7] = 100 ppm compound, 24 hour exposure, dead larvae / total larvae

SMILES	pest or weed control at 0.25 % [1, 6]	pest or weed control at 100 ppm [1, 7]	% Rep (bed bug repellency) [2]	mortality at 200 µg/mL [3]	mortality at 2000 µg/mL [3]	Class [4]	pest or weed control at 100 ppm ([1]; 24 h)	pest or weed control at 0.25 % ([1]; 24 h)	Comp A Class [4]	Comp B Class [4]	Class B (activator class of the individual component) [4]	Class (activator class of the individual component) ([4]; Table 13, single component alone)	Class (activator class of the individual component) ([4]; Table 16, single component alone)	activator class of single compound ([4]; single compound)	Class ([5]; Table 10, single compounds, percent reduction in cpA activity compared to baseline)	Class (inhibitor class of the individual component) ([5]; Table 13, single component alone, Inh = inhibitor)
CC1OCCC1=O (centres unmarked) [OLI0004, 2-methyltetrahydrofuran-3-one]	0%	0%	37%	0%	0%	Strong Activator (strong activators yield an increase in activity that is >60 spk/sec over baseline neuronal activity)										
CCc1ccc(O)cc1 [OLI0005, 4-ethylphenol]			100%	0%	100%	Strong Activator (strong activators yield an increase in activity that is >60 spk/sec over baseline neuronal activity)	100%	100%								
Cc1ccc(C=O)o1 [OLI0006, 5-methyl furfural]	100%	0%	47%	0%	0%	Strong Activator (strong activators yield an increase in activity that is >60 spk/sec over baseline neuronal activity)										
CCCCOC=O [OLI0007, butyl formate]			6%	0%	0%	Strong Activator (strong activators yield an increase in activity that is >60 spk/sec over baseline neuronal activity)	0%	0%								
CCOC(=O)c1ccco1 [OLI0009, ethyl 2-furoate]	100%	0%	41%	0%	0%	Strong Activator (strong activators yield an increase in activity that is >60 spk/sec over baseline neuronal activity)										
CCOC(=O)C(C)O (centres unmarked) [OLI0010, ethyllactate]	0%	0%	37%	0%	0%	Strong Activator (strong activators yield an increase in activity that is >60 spk/sec over baseline neuronal activity)										
COc1ccccc1O [OLI0012, guaiacol]	100%	0%	100%	0%	0%	Strong Activator (strong activators yield an increase in activity that is >60 spk/sec over baseline neuronal activity)										
Cc1cnc(C)c(C)n1 [OLI0014, 2,3,5-trimethylpyrazine]	21%	0%	59%	0%	0%	Moderate Activator (Moderate activators yield an increase in neuronal activity that is between 40 and 60 spk/sec over baseline neuronal activity)			Mod	Mod	Mod					
Cc1nccnc1C [OLI0015, 2,3-dimethylpyrazine]	0%	0%	77%	0%	0%	Moderate Activator (Moderate activators yield an increase in neuronal activity that is between 40 and 60 spk/sec over baseline neuronal activity)			Mod	Mod	Mod	Mod	Mod	moderate activator (spike rate of 40-60 spk/sec over the baseline activity of the neuron)		
CC(=O)c1ccc(C)o1 [OLI0016, 2-acetyl-5-methyl furan]	100%	0%	86%	0%	0%	Moderate Activator (Moderate activators yield an increase in neuronal activity that is between 40 and 60 spk/sec over baseline neuronal activity)			Mod	Mod	Mod					
CC(=O)c1ccco1 [OLI0017, 2-furyl methyl ketone]	100%	50%	60%	0%	0%	Moderate Activator (Moderate activators yield an increase in neuronal activity that is between 40 and 60 spk/sec over baseline neuronal activity)			Mod		Mod					
C=CCOC(=O)CCC [OLI0019, allyl butyrate]	100%	0%	8%	0%	0%	Moderate Activator (Moderate activators yield an increase in neuronal activity that is between 40 and 60 spk/sec over baseline neuronal activity)				Mod	Mod					
CCCC(O)CC(=O)OCC (centres unmarked) [OLI0021, ethyl 3-hydroxyhexanoate]	0%	0%	100%	0%	75%	Moderate Activator (Moderate activators yield an increase in neuronal activity that is between 40 and 60 spk/sec over baseline neuronal activity)			Mod	Mod	Mod					
O=CCc1ccccc1 [OLI0028, phenylacetaldehyde]			50%	0%	0%	Moderate Activator (Moderate activators yield an increase in neuronal activity that is between 40 and 60 spk/sec over baseline neuronal activity)				Mod						
c1ccc2[nH]ccc2c1 [OLI0052, indole]			100%	0%	100%	Mild Activator (mild activators yield an increase in neuronal activity that is between 20 and 40 spk/sec over baseline neuronal activity)	100%	100%								
O=C/C=C/c1ccccc1 [OLI0065, trans-cinnamaldehyde]			100%	0%	0%	Mild Activator (mild activators yield an increase in neuronal activity that is between 20 and 40 spk/sec over baseline neuronal activity)	0%	100%								
CCCCC=O [OLI0066, valeraldehyde]	35%	0%	33%	0%	0%	Mild Activator (mild activators yield an increase in neuronal activity that is between 20 and 40 spk/sec over baseline neuronal activity)										
CCCCCCC/C=C/C=O [OLI0077, trans-2-decenal]			72%												Moderate Inhibitor (moderate inhibitors (reducing activity by 40-60%))	Mod
O=C(C=Cc1ccccc1)OCc1ccccc1 [OLI0120, benzyl cinnamate]	0%	0%	21%	0%	0%											
